We go through 11 compounds from PubChem BioAssay (NCI).

Some test systems named below: 786-0 renal; A498 renal; BT-549 breast; CAKI-1 renal; COLO 205 colon; HOP-92 NSCLC; HS 578T breast; K-562 leukemia; M14 melanoma; MOLT-4 leukemia; NCI-H226 lung; NCI-H460 lung; NCI/ADR-RES ovarian; SF-268 CNS; SK-MEL-28 melanoma; SK-MEL-5 melanoma; SK-OV-3 ovarian; U251 CNS; UACC-257 melanoma; SNB-75 CNS.
What all share (assay): DTP human tumour cell line panel, 48 h

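Briefly, cells in 96-well plates were exposed to five compound concentrations for 48 h, and endpoints were estimated by linear interpolation. TGI marks complete inhibition of growth.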

The term TGI denotes the concentration at which net growth stops. As for `CCCCN1C(=O)CS/C1=N/Nc1nc2c([nH]1)c(=O)n(C)c(=O)n2C`, the total growth inhibition concentration (TGI) with 786-0 renal is 41.7 µM; with A498 renal it was over 100 µM; with BT-549 breast it was over 100 µM; with CAKI-1 renal, over 100 µM; with COLO 205 colon, over 100 µM; with HOP-92 NSCLC it was over 100 µM. Also, the TGI in the test on HS 578T breast was over 100 µM; with K-562 leukemia it was over 100 µM; in the test on M14 melanoma it was over 100 µM; with MOLT-4 leukemia, 64.7 µM; in the test on NCI-H226 lung it was over 100 µM; in the test on NCI-H460 lung, over 100 µM. Further, the TGI in the test on NCI/ADR-RES ovarian, in the test on SF-268 CNS, in the test with SK-MEL-28 melanoma, with SK-MEL-5 melanoma, in the test with SK-OV-3 ovarian and in the test with U251 CNS was over 100 µM in each case. In addition, the TGI in the test on UACC-257 melanoma was over 100 µM.
Turning to `O=S(=O)(/N=C(\NO)Nc1ccc(Cl)cc1)C1CC=C(c2ccon2)S1` (configuration not stated), the TGI with 786-0 renal is over 100 µM; in the test with A498 renal, over 75.9 µM; in the test on BT-549 breast, over 63 µM; in the test with CAKI-1 renal, over 100 µM; with COLO 205 colon, 35 µM; in the test with HOP-92 NSCLC, over 85.5 µM. Further, the TGI was over 66.3 µM with HS 578T breast; over 100 µM in the test with K-562 leukemia; over 100 µM in the test with M14 melanoma; over 51.3 µM in the test on MOLT-4 leukemia; over 79.8 µM in the test with NCI-H226 lung; over 65.8 µM in the test with NCI-H460 lung. In addition, the total growth inhibition concentration (TGI) in the test with NCI/ADR-RES ovarian is over 100 µM; in the test with SF-268 CNS, over 84.4 µM; in the test on SK-MEL-28 melanoma, over 100 µM; with SK-MEL-5 melanoma, over 62.1 µM; with SK-OV-3 ovarian, over 100 µM; in the test on U251 CNS, over 100 µM. Further, in the test on UACC-257 melanoma, the TGI was over 100 µM.
In the case of `COc1ccc(/C=C2\CN(C)CC3C2=NN(c2ccccc2)C3c2ccc(OC)cc2)cc1` (configuration not stated), the total growth inhibition concentration (TGI) in the test with 786-0 renal, with A498 renal, in the test on BT-549 breast, in the test with CAKI-1 renal, with COLO 205 colon and with HOP-92 NSCLC was over 100 µM each time. Further, the total growth inhibition concentration (TGI) in the test on HS 578T breast, with K-562 leukemia, in the test with M14 melanoma, in the test with MOLT-4 leukemia, in the test with NCI-H226 lung and in the test with NCI-H460 lung was over 100 µM each time. In addition, the concentration for total growth inhibition (TGI) in the test with NCI/ADR-RES ovarian is over 100 µM; in the test with SF-268 CNS, over 100 µM; in the test with SK-MEL-28 melanoma it was over 100 µM; with SK-MEL-5 melanoma, over 100 µM; in the test on SK-OV-3 ovarian, 55.1 µM; in the test on UACC-257 melanoma, over 100 µM.
Consider `NC(=O)CNC(=O)[C@@H]1C[C@@H](OCCC(=O)O)CN1C(=O)OCc1ccccc1`, for which the TGI in the test on 786-0 renal, in the test with A498 renal, in the test on BT-549 breast, in the test with COLO 205 colon, with HS 578T breast and in the test on K-562 leukemia was over 100 µM each time. The TGI in the test on M14 melanoma, in the test on MOLT-4 leukemia, in the test on NCI-H226 lung, in the test with NCI-H460 lung, with NCI/ADR-RES ovarian and in the test on SF-268 CNS was over 100 µM throughout. Moreover, the total growth inhibition concentration (TGI) in the test on SK-MEL-28 melanoma, in the test with SK-MEL-5 melanoma, in the test with SK-OV-3 ovarian, in the test on SNB-75 CNS, with U251 CNS and with UACC-257 melanoma was over 100 µM each time.
On to `COc1cc(C(=O)OCCn2[nH]c(-c3ccc(Cl)cc3)nc2=S)cc(OC)c1OC`, for which the TGI in the test with 786-0 renal was over 100 µM; in the test with A498 renal it was over 100 µM; in the test on BT-549 breast, over 100 µM; in the test with CAKI-1 renal it was over 100 µM; with COLO 205 colon, over 100 µM; in the test on HOP-92 NSCLC, 95.2 µM. The TGI with HS 578T breast, in the test on K-562 leukemia, in the test on M14 melanoma, with MOLT-4 leukemia, in the test with NCI-H226 lung and in the test with NCI-H460 lung was over 100 µM in each case. Also, the TGI with NCI/ADR-RES ovarian, in the test with SF-268 CNS, in the test on SK-MEL-28 melanoma, with SK-MEL-5 melanoma, in the test with SK-OV-3 ovarian and in the test with U251 CNS was over 100 µM throughout. Further, the TGI in the test on UACC-257 melanoma is over 100 µM.
Consider `CC[C@H]1C=CCC[C@@]2(C[C@@H]3CC[C@@H]4[C@H](C(=O)OCCCCCCCCCCCCCCCC(=O)N(CCCNC(C)=O)C[C@H](CCNC(C)=O)OC(C)=O)[C@]5(CCC[C@@H](C)O5)NC(=[N+]34)N2)O1`, for which the concentration for total growth inhibition (TGI) in the test with 786-0 renal was found to be 0.426 µM; in the test on A498 renal, 1.09 µM; with BT-549 breast it was 2.93 µM; with CAKI-1 renal, 1.86 µM; with COLO 205 colon it was 0.955 µM; in the test on HOP-92 NSCLC, 0.32 µM. The concentration for total growth inhibition (TGI) in the test with HS 578T breast came out at 1.72 µM; in the test with K-562 leukemia it was 3.81 µM; in the test on M14 melanoma it was 0.34 µM; in the test with MOLT-4 leukemia it was 1.66 µM; with NCI-H226 lung, 1.88 µM; in the test on NCI-H460 lung it was 1.14 µM. In addition, the TGI came to 8.18 µM in the test on NCI/ADR-RES ovarian; 1.14 µM in the test on SF-268 CNS; 2.52 µM in the test on SK-MEL-28 melanoma; 0.647 µM in the test with SK-MEL-5 melanoma; 2.73 µM with SK-OV-3 ovarian; 1.11 µM in the test on U251 CNS. The same compound came in with a concentration for total growth inhibition (TGI) with UACC-257 melanoma of 0.291 µM.
With `O=C1C2CC=CCC2C(=O)N1n1c(Cc2ccccc2)n[nH]c1=O` (configuration not stated), the TGI in the test with 786-0 renal, with A498 renal, with BT-549 breast, in the test with CAKI-1 renal, with COLO 205 colon and with HOP-92 NSCLC was over 100 µM each time. The concentration for total growth inhibition (TGI) in the test on HS 578T breast, with K-562 leukemia, in the test with M14 melanoma, in the test on MOLT-4 leukemia, in the test on NCI-H226 lung and with NCI-H460 lung was over 100 µM in each case. Also, the TGI in the test with NCI/ADR-RES ovarian, in the test on SF-268 CNS, with SK-MEL-5 melanoma, with SK-OV-3 ovarian, with U251 CNS and in the test on UACC-257 melanoma was over 100 µM throughout.
Turning to `Cc1nc2ccccc2n1Cc1nnc2n1N=C(c1ccccc1)CS2`, the TGI is over 100 µM in the test on 786-0 renal; over 100 µM with A498 renal; 80.8 µM in the test with BT-549 breast; over 100 µM in the test with CAKI-1 renal; over 100 µM in the test with COLO 205 colon; over 100 µM in the test with HS 578T breast. Besides, the total growth inhibition concentration (TGI) in the test with M14 melanoma, in the test on MOLT-4 leukemia, in the test on NCI-H226 lung, in the test on NCI-H460 lung, in the test on NCI/ADR-RES ovarian and in the test on SF-268 CNS was over 100 µM each time. For the same compound, the TGI with SK-MEL-28 melanoma was over 100 µM; in the test with SK-MEL-5 melanoma, over 100 µM; with SK-OV-3 ovarian it was over 100 µM; in the test on SNB-75 CNS, 59 µM; in the test on U251 CNS, over 100 µM; in the test with UACC-257 melanoma, 65.3 µM.
Regarding `O=C1CCCC2=C1CC1=C(CCCC1=O)N2c1cccc([N+](=O)[O-])c1`, the concentration for total growth inhibition (TGI) with 786-0 renal, in the test with A498 renal, with BT-549 breast, in the test on CAKI-1 renal, in the test on HS 578T breast and in the test with K-562 leukemia was over 100 µM each time. The concentration for total growth inhibition (TGI) in the test on M14 melanoma, in the test on MOLT-4 leukemia, with NCI-H226 lung, in the test on NCI-H460 lung, with NCI/ADR-RES ovarian and in the test on SF-268 CNS was over 100 µM in each case. Further, the concentration for total growth inhibition (TGI) with SK-MEL-28 melanoma, in the test with SK-MEL-5 melanoma, with SK-OV-3 ovarian, in the test on SNB-75 CNS and in the test on U251 CNS was over 100 µM each time.
With `CCOC(=O)N1N(c2ccccc2)C(=O)C1(c1ccccc1)c1ccccc1`, the TGI in the test on 786-0 renal, in the test with A498 renal, in the test on BT-549 breast, in the test on CAKI-1 renal, in the test with COLO 205 colon and with HOP-92 NSCLC was over 100 µM each time. The total growth inhibition concentration (TGI) with HS 578T breast, in the test on K-562 leukemia, in the test on M14 melanoma, in the test with MOLT-4 leukemia, in the test with NCI-H226 lung and in the test with NCI/ADR-RES ovarian was over 100 µM in each case. Also, the concentration for total growth inhibition (TGI) in the test with SF-268 CNS, with SK-MEL-28 melanoma, with SK-MEL-5 melanoma, with SK-OV-3 ovarian, in the test on U251 CNS and in the test with UACC-257 melanoma was over 100 µM in each case.
As to `O=C(CCc1ccc(O)cc1)NCCCNC(=O)CCc1ccc(O)cc1`, the TGI in the test with 786-0 renal, in the test with A498 renal, in the test with BT-549 breast, with CAKI-1 renal, in the test on COLO 205 colon and in the test on HS 578T breast was over 100 µM throughout. For the same compound, the total growth inhibition concentration (TGI) in the test on K-562 leukemia, in the test on M14 melanoma, with MOLT-4 leukemia, in the test on NCI-H226 lung, in the test on NCI-H460 lung and with NCI/ADR-RES ovarian was over 100 µM each time. For the same compound, the TGI in the test on SF-268 CNS, with SK-MEL-28 melanoma, with SK-MEL-5 melanoma, with SK-OV-3 ovarian, in the test with SNB-75 CNS and in the test with U251 CNS was over 100 µM in each case. This compound also registered a TGI in the test with UACC-257 melanoma of over 100 µM.
